According to ChEMBL document CHEMBL3352576, “Synthesis and antitumor activities of novel hybrid molecules containing 1,3,4-oxadiazole and 1,3,4-thiadiazole bearing Schiff base moiety” (Bioorg Med Chem Lett, 2014):

How the values were obtained:
Assay type in all cases: functional, cell-based
[1] = test system: A549; test: Antiproliferative activity against human A549 cells assessed as inhibition of cell proliferation by CCK8 assay
[2] = Antiproliferative activity against human SMMC7721 cells assessed as inhibition of cell proliferation by CCK8 assay; conditions: SMMC-7721
[3] = test system: MCF7; test: Antiproliferative activity against human MCF7 cells assessed as inhibition of cell proliferation by CCK8 assay

SMILES | IC50 [1] | IC50 [2] | IC50 [3]
O=c1[nH]cc(F)c(=O)[nH]1 [FLUOROURACIL] | 8.13 µM | 5.62 µM | –
Cc1ccccc1-c1nnc(CSc2nnc(/N=C/c3ccccc3O)s2)o1 | 7.85 µM | 15.5 µM | 9.36 µM
Oc1ccccc1/C=N/c1nnc(SCc2nnc(-c3ccccc3Br)o2)s1 | 7.15 µM | 6.78 µM | 9.14 µM
O=[N+]([O-])c1cccc(-c2nnc(CSc3nnc(/N=C/c4ccccc4O)s3)o2)c1 | 36.9 µM | 15.7 µM | 13.9 µM
Cc1cccc(-c2nnc(CSc3nnc(/N=C/c4ccccc4O)s3)o2)c1 | 24.3 µM | 4.55 µM | 11.6 µM
Oc1ccccc1/C=N/c1nnc(SCc2nnc(-c3ccc(Cl)cc3)o2)s1 | 30.1 µM | 2.84 µM | 7.55 µM
Oc1ccccc1/C=N/c1nnc(SCc2nnc(-c3ccccc3Cl)o2)s1 | 18.1 µM | 31.8 µM | 18.1 µM
Oc1ccccc1/C=N/c1nnc(SCc2nnc(-c3ccc(Br)cc3)o2)s1 | 20 µM | 18 µM | 8.32 µM
COc1cccc(-c2nnc(CSc3nnc(/N=C/c4ccccc4O)s3)o2)c1 | 8.82 µM | 4.34 µM | 22 µM
Oc1ccccc1/C=N/c1nnc(SCc2nnc(-c3ccc(F)cc3)o2)s1 | 20.1 µM | 13.1 µM | 15.6 µM
Oc1ccccc1/C=N/c1nnc(SCc2nnc(-c3ccccc3)o2)s1 | 4.11 µM | 7.1 µM | 9.76 µM
COc1ccc(-c2nnc(CSc3nnc(/N=C/c4ccccc4O)s3)o2)cc1 | 20.3 µM | 10 µM | 4.56 µM
O=[N+]([O-])c1ccc(-c2nnc(CSc3nnc(/N=C/c4ccccc4O)s3)o2)cc1 | 4.13 µM | 16.9 µM | 4.25 µM
COc1cc(-c2nnc(CSc3nnc(/N=C/c4ccccc4O)s3)o2)cc(OC)c1OC | 6.55 µM | 7.6 µM | 7.95 µM
Cc1ccc(-c2nnc(CSc3nnc(/N=C/c4ccccc4O)s3)o2)cc1 | 22 µM | 37.1 µM | 8.75 µM
